Measurements reported in patent US20210008048A1, “COMPOSITIONS AND METHODS FOR CANCER TREATMENT” (Dana-Farber Cancer Institute, Inc., priority 2018, published 2021).
Where “and” joins values, the source holds several entries; their conditions need not be identical. Identical values can stand only once.

Assays:
[1] = test system: 4T1-Luc2 breast cancer cells; experiment: Survival after resection of orthotopic 4T1-Luc2 tumors with a loaded hydrogel implanted at the resection site; type: in vivo, female BALB/cJ mice; conditions: crosslinked hyaluronic acid hydrogel loaded with the agent placed in tumor resection site on day 10 post-tumor inoculation; extended local release; versus empty hydrogel
Method: The hydrogels for FIG. 1 were prepared according to the methods described for hydrogel 1 in Table 1. 120 μL of a hyaluronic acid solution (2.0% w/v GLYCOSIL) was pipetted into a mold. One mg of a p38 MAPK inhibitor (e.g., losmapimod (Selleckchem)) was dissolved in 10 μL DMSO, and this solution was added to the hyaluronic acid solution in the mold. Following mixing to create a homogeneous distribution of the payload, 30 μL of a PEG-diacrylate crosslinker solution (12.5% w/v EXTRALINK) was pipetted into the mold. The crosslinked hydrogel solidified in the mold over the course of a few minutes. Female BALB/cJ mice were inoculated orthotopically with 4T1-Luc2 breast cancer cells in their fourth mammary fat pad. On day 10 post-tumor inoculation, tumors (˜100 mm^3) were resected, and a hydrogel (e.g., a crosslinked hyaluronic acid hydrogel) loaded with a p38 MAPK inhibitor (e.g., losmapimod) was placed in the tumor resection site. Empty hydrogel was used as a negative control.
The hydrogels for FIG. 2 were prepared according to the methods described for hydrogel 1 in Table 1. 120 μL of a hyaluronic acid solution (2.0% w/v GLYCOSIL) was pipetted into a mold. Five hundred μg (40 μL) of an anti-IL-1β antibody (e.g., clone B122 (BioXCell)) was added to the hyaluronic acid solution in the mold. […]

TLR7 [2] = target: T1, TLR7 (Homo sapiens, UniProt Q9NYK1); conditions: concentrations as low as; cited from earlier work
T1 construct: expressed in transfected cells; host or cells: HEK293
T1 sequence (Q9NYK1 27-1049): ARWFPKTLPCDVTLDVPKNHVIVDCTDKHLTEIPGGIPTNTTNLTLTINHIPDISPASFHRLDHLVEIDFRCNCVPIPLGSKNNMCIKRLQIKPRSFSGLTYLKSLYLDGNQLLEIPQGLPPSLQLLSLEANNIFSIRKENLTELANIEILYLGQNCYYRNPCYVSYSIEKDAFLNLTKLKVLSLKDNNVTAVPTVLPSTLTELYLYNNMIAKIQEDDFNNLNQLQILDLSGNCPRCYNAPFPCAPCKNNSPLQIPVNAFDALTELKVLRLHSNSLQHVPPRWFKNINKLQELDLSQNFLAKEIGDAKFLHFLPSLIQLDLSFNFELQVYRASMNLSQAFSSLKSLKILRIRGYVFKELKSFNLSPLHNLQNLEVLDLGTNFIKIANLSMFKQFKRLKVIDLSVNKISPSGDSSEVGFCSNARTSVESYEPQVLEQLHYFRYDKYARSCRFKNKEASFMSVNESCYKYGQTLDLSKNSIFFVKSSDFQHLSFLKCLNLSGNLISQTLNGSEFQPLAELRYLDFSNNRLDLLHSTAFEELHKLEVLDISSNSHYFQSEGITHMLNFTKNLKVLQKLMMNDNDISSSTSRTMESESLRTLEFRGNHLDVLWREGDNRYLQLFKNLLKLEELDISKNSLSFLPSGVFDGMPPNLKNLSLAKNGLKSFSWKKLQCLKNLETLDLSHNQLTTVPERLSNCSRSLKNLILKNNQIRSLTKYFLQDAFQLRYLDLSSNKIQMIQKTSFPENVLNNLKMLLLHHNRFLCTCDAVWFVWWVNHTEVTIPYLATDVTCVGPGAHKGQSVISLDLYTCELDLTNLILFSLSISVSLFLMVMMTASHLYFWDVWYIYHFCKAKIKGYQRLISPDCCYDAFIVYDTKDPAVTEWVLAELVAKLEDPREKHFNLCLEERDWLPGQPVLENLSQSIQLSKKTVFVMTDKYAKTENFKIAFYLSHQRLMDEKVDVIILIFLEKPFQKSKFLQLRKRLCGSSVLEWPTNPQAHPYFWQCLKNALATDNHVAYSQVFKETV

[3] = cited from earlier work
TLR8 [4] = target: T2, TLR8 (Homo sapiens, UniProt Q9NR97); conditions: TLR8-transfected HEK293 cells, cited from earlier work
T2 construct: expressed in transfected cells; host or cells: HEK293
T2 sequence (Q9NR97 27-1041): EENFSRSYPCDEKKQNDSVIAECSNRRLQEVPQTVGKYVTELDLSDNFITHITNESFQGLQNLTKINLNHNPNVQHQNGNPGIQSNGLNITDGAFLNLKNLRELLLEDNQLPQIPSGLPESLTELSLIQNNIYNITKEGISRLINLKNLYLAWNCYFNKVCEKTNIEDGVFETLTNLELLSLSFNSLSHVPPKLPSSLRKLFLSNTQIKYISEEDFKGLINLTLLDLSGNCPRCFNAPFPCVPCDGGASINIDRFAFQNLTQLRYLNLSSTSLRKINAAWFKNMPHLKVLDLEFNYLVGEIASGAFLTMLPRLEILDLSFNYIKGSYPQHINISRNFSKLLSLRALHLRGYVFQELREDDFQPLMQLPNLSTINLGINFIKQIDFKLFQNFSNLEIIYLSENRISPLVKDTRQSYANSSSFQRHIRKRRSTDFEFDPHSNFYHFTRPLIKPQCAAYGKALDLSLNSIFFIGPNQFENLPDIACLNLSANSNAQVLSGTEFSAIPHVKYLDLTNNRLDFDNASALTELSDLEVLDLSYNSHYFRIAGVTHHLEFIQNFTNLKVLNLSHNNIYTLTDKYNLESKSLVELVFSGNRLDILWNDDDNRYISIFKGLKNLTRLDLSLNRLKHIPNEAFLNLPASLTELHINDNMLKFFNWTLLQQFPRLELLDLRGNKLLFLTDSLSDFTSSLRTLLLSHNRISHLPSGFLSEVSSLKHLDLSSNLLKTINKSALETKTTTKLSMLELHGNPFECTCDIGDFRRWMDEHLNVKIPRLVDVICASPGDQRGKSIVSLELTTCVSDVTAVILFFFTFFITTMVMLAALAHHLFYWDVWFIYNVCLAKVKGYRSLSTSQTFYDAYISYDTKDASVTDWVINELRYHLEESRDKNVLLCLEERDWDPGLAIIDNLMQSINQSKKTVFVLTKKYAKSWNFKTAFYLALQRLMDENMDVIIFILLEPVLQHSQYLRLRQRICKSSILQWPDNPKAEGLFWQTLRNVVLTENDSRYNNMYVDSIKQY

TLR7 [5] = target: T1, TLR7; conditions: TLR7-transfected HEK293 cells, cited from earlier work
TLR8 [6] = target: T2, TLR8; conditions: even at high concentrations (>10 μg/ml); cited from earlier work

Cc1c(F)cc(C(=O)NC2CC2)cc1-c1ccc(C(=O)NCC(C)(C)C)cn1 [losmapimod]
survival (Kaplan-Meier) [1]: Prolonged survival benefit

CCCCNc1nc(N)c2nc(O)n(Cc3ccc(C(=O)NCC(=O)NCCCNCCCCNCCCN)cc3)c2n1 [CL307, N1-glycinyl[4-((6-amino-2-(butylamino)-8-hydroxy-9H-purin-9-yl)methyl)benzoyl] spermine]
concentration inducing robust NF-κB activation (TLR7 [2]): 20 nM and 10 ng/ml

CCOCc1nc2c(N)nc3ccccc3c2[nH]1 [CL097]
water solubility [3]: ≥ 20 mg/mL

CCOC(=O)C1=Cc2ccc(-c3cccc(C#N)c3)cc2N=C(N)C1 [TL8-506]
potency in inducing NF-κB activation relative to CL075 (TLR8 [4]; more potent than CL075): ~25 × | potency in inducing NF-κB activation relative to R848 (TLR8 [4]; more potent than R848): ~50 ×

CCCCNc1nc(N)c2nc(O)n(Cc3ccc(C(=O)NCC(=O)O)cc3)c2n1 [CL264]
concentration inducing NF-κB activation (TLR7 [5]): 0.1 µM | concentration triggering NF-κB activation, times less than imiquimod (TLR7 [5]; relative to imiquimod): 5-10 times | TLR8 stimulation (TLR8 [6]): does not stimulate TLR8
